Experiments:
[1] = tested on: rat with cerebral ischemia and Re-Infusion; test: Protecting effect in rat with cerebral ischemia and re-infusion (four arteries ligation model); type: in vivo, Wistar rat
Source text: The following experimental example is used to illustrate the effect of resisting cardiac and cerebral ischemia as well as oxygen-deficiency, and the low toxicity of the compound of the present invention (the compound of formula (I)). • I. The protecting effect of N-acetyl-D-glucosamine in rat with cerebral ischemia and Re-Infusion • 1. Animal: Wistar rat provided by the 3rd Military Medical University P.R. China. Half of them are male, the other are female. • 2. Method for making model: the model is made by four arteries ligation method to cause the rat to be cerebral ischemia, in which for each rat, the vertebra artery in the vertebra foramen of the second cervical vertebra is blocked by hot coagulation with electric coagulator, then separate the two common carotid artery in the front of it, after that, remain the surgical thread jacket, sewing up. Next day, after the animal is recovered from anesthesia, open the sewing thread in the front of the animal, clamp the two common carotid artery with artery clip, it needs 20 min. in total. […] Grouping: the animals are divided into four groups (eight animals in each group) […]
Astragalus Group: that is, before the animal is treated, administrating Astragalus injection solution by abdominal injection.
Astragalus+N-acetyl-D-glucosanime Group: that is, 30 min before clamping, administrating a mixture injection solution of 0.25 g/kg of N-acetyl-D-glucosanime and 2 g/kg of Astragalus by abdominal injection.
The control Group: not administrating any medicament, but injecting physiological salt solution with the same volume.
The animals in each group are all fed in standard. In the process of operation, please pay attention to asepsis.
Abnormal ratio of the water content in the brain (by dry-wet weight method):
Scoring the symptoms of nerve behavior • 0 score: no symptom of nerve defect, moving normally • 1 score: cannot extend the front claw at the opposite side • 2 score: when walking, the body rotates toward the hemiplegia side • 3 score: the body collapse down toward the hemiplegia side • 4 score: not capable of walking spontaneously, losing consciousness 5.

[2] = tested on: mice in oxygen deficiency at normal pressure; test: Resistance to oxygen-deficiency: model of oxygen deficiency at normal pressure; type: in vivo, mice of Kunming species
Procedure: Experimental research of the resistance to oxygen-deficiency of N-acetyl-Dglucosanime 1. Model of Oxygen Deficiency at Normal Pressure:
The mice were put into a sealed glass desiccator with a volumn of 200 ml and charged with 20 g of sodium lime to observe the survival time.
The mice of Kunming species, provided by the 3rd Military Medical University of P. R. China
Two groups had 24 mice in total, in the experimental group, two weeks before experiment, administrating N-acetyl-D-glucosanime by stomach infusion with a dosage of 0.05 g/kg, in the control group, they were normally fed.

[3] = in vivo
Source text: N-acetyl-D-glucosanime can raise the resistance to oxygen deficiency of the small mice. • III. Toxicological test of the compound of formula (I), including: • 1. acute toxicity test: including tests of administrating medicine by oral, intravenous injection and maximum limit amount for administration; • 2. Ames test; • 3. micronucleus test of bone marrow cell of mouse; • 4. abnormal sexual test for the sperm of mouse; • 5. abnormal aberrance test for the chromosin of mouse's testis; • 6. chronic lethal test; • 7. subchronic toxicity (feed for 90 days) test; • 8. traditional aberrance-inducing test;

CC(=O)N[C@H]1C(O)O[C@H](CO)[C@@H](O)[C@@H]1O (stereo partly drawn) [N-acetyl-D-glucosanime, N-acetyl-D-glucosamine]
cerebral edema degree caused by cerebral ischemia and re-infusion ([1]; conclusion, dosage 0.025 g/kg): decreased obviously | corresponding nerve symptoms ([1]; conclusion, dosage 0.025 g/kg): released | survival rate ([1]; conclusion, dosage 0.025 g/kg): raised obviously | Water content of brain ([1]; dry-wet weight method, medicament before clamping (N-acetyl-D-glucosanime 0.25 g/kg, Astragalus 2 g/kg in mixture), control 70.84%): 66.2% | Survival ([1]; four arteries ligation, 20 min clamping, medicament before clamping (N-acetyl-D-glucosanime 0.25 g/kg, Astragalus 2 g/kg in mixture), control 62.5%): 87.5% | Abnormal ratio (symptoms of nerve behavior) ([1]; medicament before clamping (N-acetyl-D-glucosanime 0.25 g/kg, Astragalus 2 g/kg in mixture), control 75%): 50% | Average survival period ([2]; 0.05 g/kg by stomach infusion, two weeks before experiment, sealed 200 ml desiccator with 20 g sodium lime, versus control group): much longer than that of the control group | resistance to oxygen deficiency of the small mice ([2]; conclusion): can raise | acute test dosage relative to the injection dosage for human being [3]: 300 times | dosage taken at which acute toxicosis reaction had not appeared [3]: more than 2 g/kg | maximum dosage with no toxicosis reaction ([3]; 4 weeks): 1 g/kg

Reference: patent US7074774B2, “Use of N-acetyl-D-glucosamine in the manufacture of pharmaceutical useful for treating cardio-cerebrovascular anoxemia” (Third Military Medical University Chinese People's …, priority 2001, dated 2006)
